Measured values from patent publication US20210353631A1, “1,4-Benzoxazines for the Treatment of Cancers and Other Neurodegenerative Diseases” (Neugeneron LLC, priority 2020, published 2021).

System: 451 kinases
Test: Kinome profiling, count of kinases inhibited in the whole panel
Assay type: binding
Details: substantially defined as over 36% inhibition at 1 uM

## O=C1Nc2ccc(I)cc2/C1=C/c1cc(Br)c(O)c(Br)c1 [GW5074, reference compound]
  kinases inhibited substantially of the 451 kinases tested: 21
